Laboratory results as given in PubChem BioAssay AID2060332 (Molecular Pharmacology Branch, DTP, NCI, 2025).
pIC50: −log10 of the molar value.

Tested on: LG0567-F671-PDC multi-cell spheroid viability
Test: Anticancer human tumor LG0567-F671-PDC patient-derived lung adenocarcinoma cell line growth inhibition [IpAb]
Details: for pIC50: curve of first compound; for viability, T/C: stronger effect = lower value
Summary of the method: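 Spheroids of 60% malignant cells, 25% HUVEC and 15% MSC were exposed to targeted agents combined with ipatasertib or abemaciclib. Doses started at or near clinical Cmax (10 microM when unknown) and fell in half-log steps.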

[1] = second compound 0.1 µM, first compound 0.0316 µM
[2] = second compound 0.1 µM, first compound 0.1 µM
[3] = second compound 0.1 µM, first compound 0.316 µM
[4] = second compound 0.1 µM, first compound 1 µM
[5] = second compound 0.1 µM, first compound 3.16 µM
[6] = second compound 0.1 µM, first compound 10 µM
[7] = second compound 0.316 µM, first compound 0.0316 µM
[8] = second compound 0.316 µM, first compound 0.1 µM
[9] = second compound 0.316 µM, first compound 0.316 µM
[10] = second compound 0.316 µM, first compound 1 µM
[11] = second compound 0.316 µM, first compound 3.16 µM
[12] = second compound 0.316 µM, first compound 10 µM
[13] = second compound 1 µM, first compound 0.0316 µM
[14] = second compound 1 µM, first compound 0.1 µM
[15] = second compound 1 µM, first compound 0.316 µM
[16] = second compound 1 µM, first compound 1 µM
[17] = second compound 1 µM, first compound 3.16 µM
[18] = second compound 1 µM, first compound 10 µM
[19] = second compound 3.16 µM, first compound 0.0316 µM
[20] = second compound 3.16 µM, first compound 0.1 µM
[21] = second compound 3.16 µM, first compound 0.316 µM
[22] = second compound 3.16 µM, first compound 1 µM
[23] = second compound 3.16 µM, first compound 3.16 µM
[24] = second compound 3.16 µM, first compound 10 µM
[25] = second compound 10 µM, first compound 0.0316 µM
[26] = second compound 10 µM, first compound 0.1 µM
[27] = second compound 10 µM, first compound 0.316 µM
[28] = second compound 10 µM, first compound 1 µM
[29] = second compound 10 µM, first compound 3.16 µM
[30] = second compound 10 µM, first compound 10 µM
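Also: viability read after 7 days of drug exposure.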
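For viability, T/C in this document: 100% = DMSO vehicle control luminescence.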

C=CC(=O)N1CCN(c2nc(=O)n(-c3c(C)ccnc3C(C)C)c3nc(-c4c(O)cccc4F)c(F)cc23)C(C)C1 (stereo not given) + CC(C)NCC(C(=O)N1CCN(c2ncnc3c2C(C)CC3O)CC1)c1ccc(Cl)cc1
pIC50 (second compound 0.1 µM): > 7.50
pIC50 (second compound 0.316 µM): > 7.50
pIC50 (second compound 1 µM): > 7.50
pIC50 (second compound 3.16 µM): > 7.50
pIC50 (second compound 10 µM): > 7.50
viability, T/C [1]: 20%
viability, T/C [2]: 15.1%
viability, T/C [3]: 15.1%
viability, T/C [4]: 14.7%
viability, T/C [5]: 15.9%
viability, T/C [6]: 16.6%
viability, T/C [7]: 12.9%
viability, T/C [8]: 16.1%
viability, T/C [9]: 15.5%
viability, T/C [10]: 14.8%
viability, T/C [11]: 8.74%
viability, T/C [12]: 9.44%
viability, T/C [13]: 13.8%
viability, T/C [14]: 13.9%
viability, T/C [15]: 13.1%
viability, T/C [16]: 10.5%
viability, T/C [17]: 10.2%
viability, T/C [18]: 8.39%
viability, T/C [19]: 14.9%
viability, T/C [20]: 15.8%
viability, T/C [21]: 11.4%
viability, T/C [22]: 10.6%
viability, T/C [23]: 10.4%
viability, T/C [24]: 10.6%
viability, T/C [25]: 13.5%
viability, T/C [26]: 11%
viability, T/C [27]: 10.1%
viability, T/C [28]: 10%
viability, T/C [29]: 12.5%
viability, T/C [30]: 9.01%

CC(C)(C)c1cnc(CSc2cnc(NC(=O)C3CCNCC3)s2)o1 + CC(C)NCC(C(=O)N1CCN(c2ncnc3c2C(C)CC3O)CC1)c1ccc(Cl)cc1
pIC50 (second compound 0.1 µM): 6.77
pIC50 (second compound 0.316 µM): 6.86
pIC50 (second compound 1 µM): 6.80
pIC50 (second compound 3.16 µM): 6.82
pIC50 (second compound 10 µM): 6.83
viability, T/C (second compound 0.1 µM, first compound 0.00949 µM): 117%
viability, T/C (second compound 0.1 µM, first compound 0.03 µM): 110%
viability, T/C (second compound 0.1 µM, first compound 0.0949 µM): 96.3%
viability, T/C (second compound 0.1 µM, first compound 0.3 µM): 3.55%
viability, T/C (second compound 0.1 µM, first compound 0.949 µM): 1.37%
viability, T/C (second compound 0.1 µM, first compound 3 µM): 0.93%
viability, T/C (second compound 0.316 µM, first compound 0.00949 µM): 73.6%
viability, T/C (second compound 0.316 µM, first compound 0.03 µM): 111%
viability, T/C (second compound 0.316 µM, first compound 0.0949 µM): 72.7%
viability, T/C (second compound 0.316 µM, first compound 0.3 µM): 2.55%
viability, T/C (second compound 0.316 µM, first compound 0.949 µM): 1.26%
viability, T/C (second compound 0.316 µM, first compound 3 µM): 0.62%
viability, T/C (second compound 1 µM, first compound 0.00949 µM): 95.6%
viability, T/C (second compound 1 µM, first compound 0.03 µM): 117%
viability, T/C (second compound 1 µM, first compound 0.0949 µM): 88.8%
viability, T/C (second compound 1 µM, first compound 0.3 µM): 2.06%
viability, T/C (second compound 1 µM, first compound 0.949 µM): 0.88%
viability, T/C (second compound 1 µM, first compound 3 µM): 0.72%
viability, T/C (second compound 3.16 µM, first compound 0.00949 µM): 97.9%
viability, T/C (second compound 3.16 µM, first compound 0.03 µM): 113%
viability, T/C (second compound 3.16 µM, first compound 0.0949 µM): 82.9%
viability, T/C (second compound 3.16 µM, first compound 0.3 µM): 2.53%
viability, T/C (second compound 3.16 µM, first compound 0.949 µM): 0.89%
viability, T/C (second compound 3.16 µM, first compound 3 µM): 0.79%
viability, T/C (second compound 10 µM, first compound 0.00949 µM): 79.2%
viability, T/C (second compound 10 µM, first compound 0.03 µM): 74.1%
viability, T/C (second compound 10 µM, first compound 0.0949 µM): 88%
viability, T/C (second compound 10 µM, first compound 0.3 µM): 1.97%
viability, T/C (second compound 10 µM, first compound 0.949 µM): 0.87%
viability, T/C (second compound 10 µM, first compound 3 µM): 0.7%

Cn1ncc(Cl)c1-c1cc(C(=O)NC(CN)Cc2cccc(F)c2)sc1Cl (stereo not given) + CC(C)NCC(C(=O)N1CCN(c2ncnc3c2C(C)CC3O)CC1)c1ccc(Cl)cc1
pIC50 (second compound 0.1 µM): 5.49
pIC50 (second compound 0.316 µM): 5.47
pIC50 (second compound 1 µM): 5.72
pIC50 (second compound 3.16 µM): 5.52
pIC50 (second compound 10 µM): 5.62
viability, T/C [1]: 68.7%
viability, T/C [2]: 68.3%
viability, T/C [3]: 74.8%
viability, T/C [4]: 81.1%
viability, T/C [5]: 50.8%
viability, T/C [6]: 0.2%
viability, T/C [7]: 79.6%
viability, T/C [8]: 81.4%
viability, T/C [9]: 81.8%
viability, T/C [10]: 61.7%
viability, T/C [11]: 58.2%
viability, T/C [12]: 0.18%
viability, T/C [13]: 71.1%
viability, T/C [14]: 89.5%
viability, T/C [15]: 71.3%
viability, T/C [16]: 67.1%
viability, T/C [17]: 37.1%
viability, T/C [18]: 0.16%
viability, T/C [19]: 70%
viability, T/C [20]: 82.5%
viability, T/C [21]: 76.3%
viability, T/C [22]: 51.5%
viability, T/C [23]: 57%
viability, T/C [24]: 0.39%
viability, T/C [25]: 77.5%
viability, T/C [26]: 76.9%
viability, T/C [27]: 83.6%
viability, T/C [28]: 60.2%
viability, T/C [29]: 46.6%
viability, T/C [30]: 0.19%

Cn1nccc1Nc1nccc(-c2ccn(C(CO)c3ccc(Cl)c(F)c3)c(=O)c2)n1 (stereo not given) + CC(C)NCC(C(=O)N1CCN(c2ncnc3c2C(C)CC3O)CC1)c1ccc(Cl)cc1
pIC50 (second compound 0.1 µM): 6.89
pIC50 (second compound 0.316 µM): 7.10
pIC50 (second compound 1 µM): 6.82
pIC50 (second compound 3.16 µM): 6.80
pIC50 (second compound 10 µM): 6.72
viability, T/C [1]: 60.9%
viability, T/C [2]: 51.7%
viability, T/C [3]: 44.4%
viability, T/C [4]: 34.2%
viability, T/C [5]: 29.1%
viability, T/C [6]: 23.9%
viability, T/C [7]: 62.1%
viability, T/C [8]: 45.6%
viability, T/C [9]: 36.7%
viability, T/C [10]: 32.7%
viability, T/C [11]: 26%
viability, T/C [12]: 21.3%
viability, T/C [13]: 62.4%
viability, T/C [14]: 52.9%
viability, T/C [15]: 43.8%
viability, T/C [16]: 25.9%
viability, T/C [17]: 20.2%
viability, T/C [18]: 15.9%
viability, T/C [19]: 67.2%
viability, T/C [20]: 58%
viability, T/C [21]: 38.6%
viability, T/C [22]: 31.7%
viability, T/C [23]: 19.3%
viability, T/C [24]: 9.79%
viability, T/C [25]: 60.1%
viability, T/C [26]: 57.4%
viability, T/C [27]: 44.8%
viability, T/C [28]: 27.2%
viability, T/C [29]: 16.7%
viability, T/C [30]: 9.92%

Cn1ncnc1[C@H]1c2n[nH]c(=O)c3cc(F)cc(c23)N[C@@H]1c1ccc(F)cc1 + CC(C)NCC(C(=O)N1CCN(c2ncnc3c2C(C)CC3O)CC1)c1ccc(Cl)cc1
pIC50 (second compound 0.1 µM): 7.66
pIC50 (second compound 0.316 µM): 8.01
pIC50 (second compound 1 µM): 7.74
pIC50 (second compound 3.16 µM): 7.42
pIC50 (second compound 10 µM): 7.69
viability, T/C (second compound 0.1 µM, first compound 0.000316 µM): 104%
viability, T/C (second compound 0.1 µM, first compound 0.001 µM): 97.9%
viability, T/C (second compound 0.1 µM, first compound 0.00316 µM): 68.9%
viability, T/C (second compound 0.1 µM, first compound 0.01 µM): 64.9%
viability, T/C [1]: 42%
viability, T/C [2]: 41.1%
viability, T/C (second compound 0.316 µM, first compound 0.000316 µM): 69.1%
viability, T/C (second compound 0.316 µM, first compound 0.001 µM): 70.5%
viability, T/C (second compound 0.316 µM, first compound 0.00316 µM): 64.1%
viability, T/C (second compound 0.316 µM, first compound 0.01 µM): 44.9%
viability, T/C [7]: 56.4%
viability, T/C [8]: 47.8%
viability, T/C (second compound 1 µM, first compound 0.000316 µM): 73.6%
viability, T/C (second compound 1 µM, first compound 0.001 µM): 74.5%
viability, T/C (second compound 1 µM, first compound 0.00316 µM): 75%
viability, T/C (second compound 1 µM, first compound 0.01 µM): 68.5%
viability, T/C [13]: 27.8%
viability, T/C [14]: 37.7%
viability, T/C (second compound 3.16 µM, first compound 0.000316 µM): 79.3%
viability, T/C (second compound 3.16 µM, first compound 0.001 µM): 71.3%
viability, T/C (second compound 3.16 µM, first compound 0.00316 µM): 77.5%
viability, T/C (second compound 3.16 µM, first compound 0.01 µM): 59.2%
viability, T/C [19]: 53.6%
viability, T/C [20]: 37.6%
viability, T/C (second compound 10 µM, first compound 0.000316 µM): 63.9%
viability, T/C (second compound 10 µM, first compound 0.001 µM): 70.5%
viability, T/C (second compound 10 µM, first compound 0.00316 µM): 70.6%
viability, T/C (second compound 10 µM, first compound 0.01 µM): 50.8%
viability, T/C [25]: 49.6%
viability, T/C [26]: 35.3%
